Here are results for twelve molecules from PubChem BioAssay AID270 (DTP/NCI, 2004).

“And” between values parts separate entries of the source, which are not always exact repeats. Identical values can stand only once. Inconclusive results are not listed.

For the test, the system named is BDF1 mice, s.c. Lewis lung carcinoma, T/C %. Kind of test: NCI In Vivo Anticancer Drug Screen. Data for tumor model Lewis Lung Carcinoma (subcutaneous) in B6D2F1 (BDF1) mice. The protocol: The antitumor activity of compounds was measured in mice bearing transplantable tumors. Survival or tumor size were measured and the results are expressed as the measurement made in the treated group (T) divided by the measurement made in the vehicle treated control group (C). The tumor model used in this assay is Lewis Lung Carcinoma (subcutaneous) in B6D2F1 (BDF1) mice

Where [1] appears, read: endpoint: median survival time, dose: 12.5 mg/kg/injection, schedule: Q01DX009 (ip), vehicle: Klucel (hydroxypropylcellulose) (HPC), higher = longer survival.
The mark [2] stands for this setting: endpoint: median survival time, dose: 25.0 mg/kg/injection, schedule: Q01DX009 (ip), vehicle: Klucel (hydroxypropylcellulose) (HPC), higher = longer survival.
The mark [3] stands for this setting: endpoint: mean tumor weight, dose: 25.0 mg/kg/injection, schedule: Q01DX011 (ip), vehicle: carboxymethylcellulose (CMC), higher = larger tumour.

Turning to `Nc1nc(SCc2ccccc2Cl)c2[nH]cnc2n1`, the T/C by setting is: (endpoint: mean tumor weight, dose: 3.8 mg/kg/injection, schedule: Q01DX011 (ip), vehicle: other, higher = larger tumour) 82 % of control; (endpoint: mean tumor weight, dose: 7.5 mg/kg/injection, schedule: Q01DX011 (ip), vehicle: other, higher = larger tumour) 38 % of control; (endpoint: mean tumor weight, dose: 15.0 mg/kg/injection, schedule: Q01DX011 (ip), vehicle: other, higher = larger tumour) 99 % of control; (endpoint: mean tumor weight, dose: 60.0 mg/kg/injection, schedule: Q01DX011 (ip), vehicle: other, higher = larger tumour) 29 % of control; (endpoint: mean tumor weight, dose: 120.0 mg/kg/injection, schedule: Q01DX011 (ip), vehicle: other, higher = larger tumour) 11 % of control.
With `CCN(CC)CCNc1ccc(C)c2sc3ccccc3c(=O)c12`, the T/C is 62 % of control and 65 % of control (endpoint: mean tumor weight, dose: 20.0 mg/kg/injection, schedule: Q01DX011 (ip), vehicle: carboxymethylcellulose (CMC), higher = larger tumour); 51 % of control and 59 % of control (endpoint: mean tumor weight, dose: 40.0 mg/kg/injection, schedule: Q01DX011 (ip), vehicle: carboxymethylcellulose (CMC), higher = larger tumour); 16 % of control (endpoint: mean tumor weight, dose: 80.0 mg/kg/injection, schedule: Q01DX011 (ip), vehicle: carboxymethylcellulose (CMC), higher = larger tumour).
In the case of `Oc1ccccc1/C=N/NC(=S)NC1CC2C=CC1C2` (centres undefined), the T/C (endpoint: median survival time, dose: 12.5 mg/kg/injection, schedule: Q01DX009 (ip), vehicle: olive oil, sesame oil, peanut oil, higher = longer survival) was 94 % of control; the T/C (endpoint: median survival time, dose: 100.0 mg/kg/injection, schedule: Q01DX009 (ip), vehicle: olive oil, sesame oil, peanut oil, higher = longer survival) was 91 % of control; the T/C (endpoint: median survival time, dose: 200.0 mg/kg/injection, schedule: Q01DX009 (ip), vehicle: olive oil, sesame oil, peanut oil, higher = longer survival) was 87 % of control.
Regarding `O=[N+]([O-])c1ccc([I+]c2ccccc2)cc1`, the T/C under setting [1] was 91 % of control and the T/C under setting [2] was 95 % of control.
Consider `Nc1ccn(C2OC(CO)C(O)C2O)c(=O)n1` (centres undefined), for which the T/C is, setting by setting: (endpoint: mean tumor weight, dose: 20.0 mg/kg/injection, schedule: Q01DX011 (ip), vehicle: saline, higher = larger tumour) 55 % of control; (endpoint: mean tumor weight, dose: 40.0 mg/kg/injection, schedule: Q01DX011 (ip), vehicle: saline, higher = larger tumour) 40 % of control; (endpoint: median survival time, dose: 1.0 mg/kg/injection, schedule: Q01DX011 (adlb), vehicle: water, higher = longer survival) 110 % of control; (endpoint: median survival time, dose: 2.0 mg/kg/injection, schedule: Q01DX011 (adlb), vehicle: water, higher = longer survival) 100 % of control; (endpoint: median tumor weight (est.), dose: 2.7 mg/kg/injection, schedule: Q03HX032 (ip), vehicle: saline, higher = larger tumour) 43 % of control; (endpoint: median tumor weight (est.), dose: 4.0 mg/kg/injection, schedule: Q03HX024 (ip), vehicle: saline, higher = larger tumour) 50 % of control. Also, the T/C (endpoint: median tumor weight (est.), dose: 4.0 mg/kg/injection, schedule: Q03HX032 (ip), vehicle: saline, higher = larger tumour) is 36 % of control; the T/C (endpoint: median tumor weight (est.), dose: 5.3 mg/kg/injection, schedule: Q03HX016 (ip), vehicle: saline, higher = larger tumour) was 59 % of control; the T/C (endpoint: median tumor weight (est.), dose: 6.0 mg/kg/injection, schedule: Q03HX024 (ip), vehicle: saline, higher = larger tumour) is 34 % of control; the T/C (endpoint: median tumor weight (est.), dose: 8.0 mg/kg/injection, schedule: Q03HX016 (ip), vehicle: saline, higher = larger tumour) was 67 % of control; the T/C (endpoint: median tumor weight (est.), dose: 10.0 mg/kg/injection, schedule: Q03HX008 (ip), vehicle: saline, higher = larger tumour) is 62 % of control; the T/C (endpoint: median tumor weight (est.), dose: 10.0 mg/kg/injection, schedule: Q03HX032 (ip), vehicle: saline, higher = larger tumour) was 59 % of control. Further, the T/C was 32 % of control (endpoint: median tumor weight (est.), dose: 12.0 mg/kg/injection, schedule: Q03HX016 (ip), vehicle: saline, higher = larger tumour); 93 % of control (endpoint: median tumor weight (est.), dose: 12.5 mg/kg/injection, schedule: Q01DX009 (ip), vehicle: saline, higher = larger tumour); 55 % of control (endpoint: median tumor weight (est.), dose: 15.0 mg/kg/injection, schedule: Q03HX032 (ip), vehicle: saline, higher = larger tumour); 57 % of control (endpoint: median tumor weight (est.), dose: 16.0 mg/kg/injection, schedule: Q03HX008 (ip), vehicle: saline, higher = larger tumour); 74 % of control (endpoint: median tumor weight (est.), dose: 20.0 mg/kg/injection, schedule: Q01DX015 (ip), vehicle: saline, higher = larger tumour); 70 % of control (endpoint: median tumor weight (est.), dose: 20.0 mg/kg/injection, schedule: Q06HX020 (ip), vehicle: saline, higher = larger tumour). Further, the T/C reads like this: (endpoint: median tumor weight (est.), dose: 20.0 mg/kg/injection, schedule: Q12HX027 (ip), vehicle: saline, higher = larger tumour) 62 % of control; (endpoint: median tumor weight (est.), dose: 22.5 mg/kg/injection, schedule: Q03HX032 (ip), vehicle: saline, higher = larger tumour) 48 % of control; (endpoint: median tumor weight (est.), dose: 24.0 mg/kg/injection, schedule: Q03HX008 (ip), vehicle: saline, higher = larger tumour) 54 % of control; (endpoint: median tumor weight (est.), dose: 25.0 mg/kg/injection, schedule: Q01DX009 (ip), vehicle: saline, higher = larger tumour) 100 % of control; (endpoint: median tumor weight (est.), dose: 26.0 mg/kg/injection, schedule: Q01DX011 (ip), vehicle: saline, higher = larger tumour) 68 % of control; (endpoint: median tumor weight (est.), dose: 30.0 mg/kg/injection, schedule: Q01DX015 (ip), vehicle: saline, higher = larger tumour) 67 % of control. The T/C is 45 % of control (endpoint: median tumor weight (est.), dose: 30.0 mg/kg/injection, schedule: Q06HX020 (ip), vehicle: saline, higher = larger tumour); 24 % of control (endpoint: median tumor weight (est.), dose: 36.0 mg/kg/injection, schedule: Q03HX008 (ip), vehicle: saline, higher = larger tumour); 75 % of control (endpoint: median tumor weight (est.), dose: 38.0 mg/kg/injection, schedule: Q01DX011 (ip), vehicle: saline, higher = larger tumour); 73 % of control (endpoint: median tumor weight (est.), dose: 45.0 mg/kg/injection, schedule: Q01DX015 (ip), vehicle: saline, higher = larger tumour); 30 % of control (endpoint: median tumor weight (est.), dose: 45.0 mg/kg/injection, schedule: Q06HX020 (ip), vehicle: saline, higher = larger tumour); 60 % of control (endpoint: median tumor weight (est.), dose: 50.0 mg/kg/injection, schedule: Q01DX009 (ip), vehicle: saline, higher = larger tumour). For the same molecule, the T/C (endpoint: median tumor weight (est.), dose: 150.0 mg/kg/injection, schedule: Q12HX012 (ip), vehicle: saline, higher = larger tumour) was 5 % of control; the T/C (endpoint: median tumor weight (est.), dose: 220.0 mg/kg/injection, schedule: Q12HX012 (ip), vehicle: saline, higher = larger tumour) is 2 % of control; the T/C (endpoint: median tumor weight (est.), dose: 250.0 mg/kg/injection, schedule: Q04DX003 (ip), vehicle: saline, higher = larger tumour) was 74 % of control; the T/C (endpoint: median tumor weight (est.), dose: 1000.0 mg/kg/injection, schedule: Q04DX003 (ip), vehicle: saline, higher = larger tumour) is 64 % of control.
With `CCc1ccccc1N1CCN(C(=O)c2cc(OC)c(OC)c(OC)c2)CC1`, under setting [3], the T/C was 46 % of control and 48 % of control.
Consider `Nc1ccc(N=Nc2ccccc2)c(N)c1`, for which the T/C is 109 % of control (endpoint: median survival time, dose: 2.25 mg/kg/injection, schedule: Q01DX009 (ip), vehicle: Klucel (hydroxypropylcellulose) (HPC), higher = longer survival); 102 % of control (endpoint: median survival time, dose: 4.5 mg/kg/injection, schedule: Q01DX009 (ip), vehicle: Klucel (hydroxypropylcellulose) (HPC), higher = longer survival); 106 % of control (endpoint: median survival time, dose: 9.0 mg/kg/injection, schedule: Q01DX009 (ip), vehicle: Klucel (hydroxypropylcellulose) (HPC), higher = longer survival); 101 % of control (endpoint: median survival time, dose: 18.0 mg/kg/injection, schedule: Q01DX009 (ip), vehicle: Klucel (hydroxypropylcellulose) (HPC), higher = longer survival); 99 % of control (endpoint: median survival time, dose: 75.0 mg/kg/injection, schedule: Q01DX009 (ip), vehicle: Klucel (hydroxypropylcellulose) (HPC), higher = longer survival); 97 % of control (endpoint: median survival time, dose: 200.0 mg/kg/injection, schedule: Q01DX009 (ip), vehicle: Klucel (hydroxypropylcellulose) (HPC), higher = longer survival).
As for `CN[C@@H](C)[C@@H](O)c1ccccc1`, the T/C reads like this: under setting [3], 123 % of control; (endpoint: mean tumor weight, dose: 100.0 mg/kg/injection, schedule: Q01DX011 (ip), vehicle: carboxymethylcellulose (CMC), higher = larger tumour) 85 % of control; (endpoint: mean tumor weight, dose: 200.0 mg/kg/injection, schedule: Q01DX011 (ip), vehicle: carboxymethylcellulose (CMC), higher = larger tumour) 72 % of control.
With `CCCNC1=C(N2CC2)C(=O)C(NCCC)=C(N2CC2)C1=O`, the T/C is, setting by setting: (endpoint: median survival time, dose: 2.5 mg/kg/injection, schedule: Q01DX009 (ip), vehicle: saline, higher = longer survival) 102 % of control; (endpoint: median survival time, dose: 5.0 mg/kg/injection, schedule: Q01DX009 (ip), vehicle: saline, higher = longer survival) 112 % of control; (endpoint: median survival time, dose: 10.0 mg/kg/injection, schedule: Q01DX009 (ip), vehicle: saline, higher = longer survival) 114 % of control.
On to `O=NN(CCCl)C(=O)NC1CCS(=O)(=O)C1` (centres undefined) (tested in a mixture with another compound), for which the T/C was 88 % of control (endpoint: median survival time, dose: 11.0 mg/kg/injection, schedule: Q01DX001 (ip), vehicle: saline with Tween-80, higher = longer survival); 100 % of control (endpoint: median survival time, dose: 16.0 mg/kg/injection, schedule: Q01DX001 (ip), vehicle: saline with Tween-80, higher = longer survival); 92 % of control (endpoint: median survival time, dose: 30.0 mg/kg/injection, schedule: Q01DX001 (ip), vehicle: saline with Tween-80, higher = longer survival).
For the molecule `S=P(NCCNP(=S)(N1CC1)N1CC1)(N1CC1)N1CC1`, the T/C was 100 % of control (endpoint: median survival time, dose: 6.25 mg/kg/injection, schedule: Q01DX009 (ip), vehicle: Klucel (hydroxypropylcellulose) (HPC), higher = longer survival); 102 % of control under setting [1]; 104 % of control under setting [2].
In the case of `CCCCCC[C@@H](O)C/C=C\CCCCCCCC(=O)O`, the T/C (endpoint: mean tumor weight, dose: 25.0 mg/kg/injection, schedule: Q01DX011 (ip), vehicle: saline, higher = larger tumour) was 104 % of control; the T/C (endpoint: mean tumor weight, dose: 50.0 mg/kg/injection, schedule: Q01DX011 (ip), vehicle: saline, higher = larger tumour) is 77 % of control; the T/C (endpoint: mean tumor weight, dose: 100.0 mg/kg/injection, schedule: Q01DX011 (ip), vehicle: saline, higher = larger tumour) was 59 % of control.
